Values quoted from earlier work, collected in PubChem BioAssay AID1259409 (Chemical Carcinogenesis Research Information System (CCRIS), 2018).

Test system: rodent chemically induced tumor inhibition, incidence and multiplicity
Experiment: CCRIS tumor inhibitor studies
Details: Route [Inhibitor]: ORAL

Cc1c(-c2cnccn2)ssc1=S
tumour outcome (control, treated, inhibition, significance) (Carcinogen: NITROSOBIS(2-OXOPROPYL)AMINE [60599-38-4], Dose [Inhibitor]: 200 PPM IN DIET FOR 4 WK BEGINNING 1 WK PRIOR TO FIRST CARCINOGEN DOSE (STUDY DURATION: 52 WK), Species: HAMSTER, Strain/Sex: SYRIAN/FEMALE, Target Tissue: Type of Lesion: LIVER: HEPATOCELLULAR ADENOMA, Dose [Carcinogen]: 10 MG/KG BW 1X/WK FOR 3 WK (STUDY DURATION: 52 WK)): 16.7%, 20.7%, -24%, not significant | tumour outcome (control, treated, inhibition, significance) (Carcinogen: NITROSOBIS(2-OXOPROPYL)AMINE [60599-38-4], Dose [Inhibitor]: 200 PPM IN DIET FOR 4 WK BEGINNING 1 WK PRIOR TO FIRST CARCINOGEN DOSE (STUDY DURATION: 52 WK), Species: HAMSTER, Strain/Sex: SYRIAN/FEMALE, Target Tissue: Type of Lesion: LIVER: HEPATOCELLULAR CARCINOMA, Dose [Carcinogen]: 10 MG/KG BW 1X/WK FOR 3 WK (STUDY DURATION: 52 WK)): 6.7%, 6.9%, -3%, not significant | tumour outcome (control, treated, inhibition, significance) (Carcinogen: NITROSOBIS(2-OXOPROPYL)AMINE [60599-38-4], Dose [Inhibitor]: 200 PPM IN DIET FOR 4 WK BEGINNING 1 WK PRIOR TO FIRST CARCINOGEN DOSE (STUDY DURATION: 52 WK), Species: HAMSTER, Strain/Sex: SYRIAN/FEMALE, Target Tissue: Type of Lesion: LUNG: ADENOCARCINOMA, Dose [Carcinogen]: 10 MG/KG BW 1X/WK FOR 3 WK (STUDY DURATION: 52 WK)): 46.7%, 37.9%, 19%, not significant | tumour outcome (control, treated, inhibition, significance) (Carcinogen: NITROSOBIS(2-OXOPROPYL)AMINE [60599-38-4], Dose [Inhibitor]: 200 PPM IN DIET FOR 4 WK BEGINNING 1 WK PRIOR TO FIRST CARCINOGEN DOSE (STUDY DURATION: 52 WK), Species: HAMSTER, Strain/Sex: SYRIAN/FEMALE, Target Tissue: Type of Lesion: LUNG: ADENOMA, Dose [Carcinogen]: 10 MG/KG BW 1X/WK FOR 3 WK (STUDY DURATION: 52 WK)): 86.7%, 75.9%, 12%, not significant | tumour outcome (control, treated, inhibition, significance) (Carcinogen: NITROSOBIS(2-OXOPROPYL)AMINE [60599-38-4], Dose [Inhibitor]: 200 PPM IN DIET FOR 4 WK BEGINNING 1 WK PRIOR TO FIRST CARCINOGEN DOSE (STUDY DURATION: 52 WK), Species: HAMSTER, Strain/Sex: SYRIAN/FEMALE, Target Tissue: Type of Lesion: PANCREAS: ADENOCARCINOMA, Dose [Carcinogen]: 10 MG/KG BW 1X/WK FOR 3 WK (STUDY DURATION: 52 WK)): 13/30 (43.3%), 20/29 (68.9%), -59%, not significant | tumour outcome (control, treated, inhibition, significance) (Carcinogen: NITROSOBIS(2-OXOPROPYL)AMINE [60599-38-4], Dose [Inhibitor]: 400 PPM IN DIET FOR 4 WK BEGINNING 1 WK PRIOR TO FIRST CARCINOGEN DOSE (STUDY DURATION: 52 WK), Species: HAMSTER, Strain/Sex: SYRIAN/FEMALE, Target Tissue: Type of Lesion: GALL BLADDER: ADENOMA, Dose [Carcinogen]: 10 MG/KG BW 1X/WK FOR 3 WK (STUDY DURATION: 52 WK)): 13.3%, 21.1%, -59%, not significant | tumour outcome (control, treated, inhibition, significance) (Carcinogen: NITROSOBIS(2-OXOPROPYL)AMINE [60599-38-4], Dose [Inhibitor]: 400 PPM IN DIET FOR 4 WK BEGINNING 1 WK PRIOR TO FIRST CARCINOGEN DOSE (STUDY DURATION: 52 WK), Species: HAMSTER, Strain/Sex: SYRIAN/FEMALE, Target Tissue: Type of Lesion: KIDNEY: RENAL CELL ADENOMA, Dose [Carcinogen]: 10 MG/KG BW 1X/WK FOR 3 WK (STUDY DURATION: 52 WK)): 3.3%, 3.4%, -3%, not significant | tumour outcome (control, treated, inhibition, significance) (Carcinogen: NITROSOBIS(2-OXOPROPYL)AMINE [60599-38-4], Dose [Inhibitor]: 400 PPM IN DIET FOR 4 WK BEGINNING 1 WK PRIOR TO FIRST CARCINOGEN DOSE (STUDY DURATION: 52 WK), Species: HAMSTER, Strain/Sex: SYRIAN/FEMALE, Target Tissue: Type of Lesion: KIDNEY: RENAL CELL CARCINOMA, Dose [Carcinogen]: 10 MG/KG BW 1X/WK FOR 3 WK (STUDY DURATION: 52 WK)): 6.7%, 10.3%, -54%, not significant | tumour outcome (control, treated, inhibition, significance) (Carcinogen: NITROSOBIS(2-OXOPROPYL)AMINE [60599-38-4], Dose [Inhibitor]: 400 PPM IN DIET FOR 4 WK BEGINNING 1 WK PRIOR TO FIRST CARCINOGEN DOSE (STUDY DURATION: 52 WK), Species: HAMSTER, Strain/Sex: SYRIAN/FEMALE, Target Tissue: Type of Lesion: LIVER: CHOLANGIOCELLULAR ADENOMA, Dose [Carcinogen]: 10 MG/KG BW 1X/WK FOR 3 WK (STUDY DURATION: 52 WK)): 6.7%, 0.0%, 100%, not significant | outcome (Carcinogen: NITROSOBIS(2-OXOPROPYL)AMINE [60599-38-4], Dose [Inhibitor]: 400 PPM IN DIET FOR 4 WK BEGINNING 1 WK PRIOR TO FIRST CARCINOGEN DOSE (STUDY DURATION: 52 WK), Species: HAMSTER, Strain/Sex: SYRIAN/FEMALE, Target Tissue: Type of Lesion: LIVER: CHOLANGIOCELLULAR CARCINOMA, Dose [Carcinogen]: 10 MG/KG BW 1X/WK FOR 3 WK (STUDY DURATION: 52 WK)): 0.0%, 7.1%, -100%, not significant | tumour outcome (control, treated, inhibition, significance) (Carcinogen: NITROSOBIS(2-OXOPROPYL)AMINE [60599-38-4], Dose [Inhibitor]: 400 PPM IN DIET FOR 4 WK BEGINNING 1 WK PRIOR TO FIRST CARCINOGEN DOSE (STUDY DURATION: 52 WK), Species: HAMSTER, Strain/Sex: SYRIAN/FEMALE, Target Tissue: Type of Lesion: LIVER: HEPATOCELLULAR ADENOMA, Dose [Carcinogen]: 10 MG/KG BW 1X/WK FOR 3 WK (STUDY DURATION: 52 WK)): 16.7%, 14.3%, 14%, not significant | tumour outcome (control, treated, inhibition, significance) (Carcinogen: NITROSOBIS(2-OXOPROPYL)AMINE [60599-38-4], Dose [Inhibitor]: 400 PPM IN DIET FOR 4 WK BEGINNING 1 WK PRIOR TO FIRST CARCINOGEN DOSE (STUDY DURATION: 52 WK), Species: HAMSTER, Strain/Sex: SYRIAN/FEMALE, Target Tissue: Type of Lesion: LIVER: HEPATOCELLULAR CARCINOMA, Dose [Carcinogen]: 10 MG/KG BW 1X/WK FOR 3 WK (STUDY DURATION: 52 WK)): 6.7%, 7.1%, -6%, not significant | tumour outcome (control, treated, inhibition, significance) (Carcinogen: NITROSOBIS(2-OXOPROPYL)AMINE [60599-38-4], Dose [Inhibitor]: 400 PPM IN DIET FOR 4 WK BEGINNING 1 WK PRIOR TO FIRST CARCINOGEN DOSE (STUDY DURATION: 52 WK), Species: HAMSTER, Strain/Sex: SYRIAN/FEMALE, Target Tissue: Type of Lesion: LUNG: ADENOCARCINOMA, Dose [Carcinogen]: 10 MG/KG BW 1X/WK FOR 3 WK (STUDY DURATION: 52 WK)): 46.7%, 17.2%, 63%, p<0.05 | tumour outcome (control, treated, inhibition, significance) (Carcinogen: NITROSOBIS(2-OXOPROPYL)AMINE [60599-38-4], Dose [Inhibitor]: 400 PPM IN DIET FOR 4 WK BEGINNING 1 WK PRIOR TO FIRST CARCINOGEN DOSE (STUDY DURATION: 52 WK), Species: HAMSTER, Strain/Sex: SYRIAN/FEMALE, Target Tissue: Type of Lesion: LUNG: ADENOMA, Dose [Carcinogen]: 10 MG/KG BW 1X/WK FOR 3 WK (STUDY DURATION: 52 WK)): 86.7%,58.6%, 32%, p<0.05 | tumour outcome (control, treated, inhibition, significance) (Carcinogen: NITROSOBIS(2-OXOPROPYL)AMINE [60599-38-4], Dose [Inhibitor]: 400 PPM IN DIET FOR 4 WK BEGINNING 1 WK PRIOR TO FIRST CARCINOGEN DOSE (STUDY DURATION: 52 WK), Species: HAMSTER, Strain/Sex: SYRIAN/FEMALE, Target Tissue: Type of Lesion: PANCREAS: ADENOCARCINOMA, Dose [Carcinogen]: 10 MG/KG BW 1X/WK FOR 3 WK (STUDY DURATION: 52 WK)): 13/30 (43.3%), 19/28 (67.9%), -57%, not significant | tumour outcome (control, treated, inhibition, significance) (Dose [Inhibitor]: 0, 0.075% IN DIET FOR 4 WK BEGINNING 1 WK PRIOR TO CARCINOGEN TREATMENT (STUDY DURATION: 23 MO), Species: RAT, Strain/Sex: F344/MALE, Target Tissue: Type of Lesion: LIVER: ADENOMA, Dose [Carcinogen]: 25 UG IN 0.1 ML TRICAPRYLIN 5 D/WK FOR 2 WK, Promoter: NONE USED): 4/45 (9%), 0/46 (0%), 100%, p<0.05 | tumour outcome (control, treated, inhibition, significance) (Dose [Inhibitor]: 0, 0.075% IN DIET FOR 4 WK BEGINNING 1 WK PRIOR TO CARCINOGEN TREATMENT (STUDY DURATION: 23 MO), Species: RAT, Strain/Sex: F344/MALE, Target Tissue: Type of Lesion: LIVER: CARCINOMA, Dose [Carcinogen]: 25 UG IN 0.1 ML TRICAPRYLIN 5 D/WK FOR 2 WK, Promoter: NONE USED): 5/45 (11%), 0/46 (0%), 100%, p<0.05
